Experimental data taken from patent US8436000B2, “Substituted carbamate derivatives as modulators of corticotropin-releasing factor receptor activity” (Bristol-Myers Squibb Company, priority 2008, dated 2013).

system: not given; assay: not given; conditions: not given

| melting point [°C] | Molecule |
| --- | --- |
| 206.5 to 207.2 | COc1nc(C)c(Nc2nc(Cl)cn([C@H](COC(=O)Nc3cccc(C#N)c3)C3CC3)c2=O)cc1C [Example 2, (S)-2-(5-Chloro-3-(6-methoxy-2,5-dimethylpyridin-3-ylamino)-2-oxopyrazin-1(2H)-yl)-2-cyclopropylethyl 3-cyanophenylcarbamate] |

target: T1, CRF1 (Rattus norvegicus, UniProt P35353); assay: CRF1 Binding Assay (125I-ovine-CRF displacement, rat frontal cortex homogenate); conditions: 125I-o-CRF, class symbols
T1 construct: Frozen rat frontal cortex was thawed rapidly in assay buffer; tissue Analytical Biological Services, Inc. (Wilmington, Del.); host or cells: rat frontal cortex
T1 sequence (P35353 24-415): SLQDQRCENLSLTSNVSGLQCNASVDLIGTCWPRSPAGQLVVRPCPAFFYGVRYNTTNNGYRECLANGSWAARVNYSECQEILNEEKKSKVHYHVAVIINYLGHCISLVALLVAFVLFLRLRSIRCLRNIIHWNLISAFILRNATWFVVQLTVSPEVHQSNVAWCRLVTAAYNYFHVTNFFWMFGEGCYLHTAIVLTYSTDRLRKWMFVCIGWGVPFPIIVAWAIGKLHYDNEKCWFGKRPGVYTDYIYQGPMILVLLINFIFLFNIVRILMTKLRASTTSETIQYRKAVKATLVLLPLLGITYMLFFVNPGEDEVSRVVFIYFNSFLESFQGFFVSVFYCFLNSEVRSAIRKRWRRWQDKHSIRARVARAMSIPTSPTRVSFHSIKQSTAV
Experimental: Frozen rat frontal cortex was thawed rapidly in assay buffer containing 50 mM Hepes (pH 7.0 at 23° C.), 10 mM MgCl2, 2 mM EGTA, 1 μg/ml aprotinin, 1 μg/ml leupeptin, 1 Mg/ml pepstatin A, 0.005% Triton X-100, 10 U/ml bacitracin and 0.1% ovalbumin and homogenized. The suspension was centrifuged at 32000×g for 30 minutes. The resulting supernatant was discarded and the pellet resuspended by homogenization in assay buffer and centrifuged again. The supernatant was discarded and the pellet resuspended by homogenization in assay buffer and frozen at −70° C. On the day of the experiment aliquots of the homogenate were thawed quickly and 25 μg/well added to […] ^125I-ovine-CRF (^125I-o-CRF) and drugs in a total volume of 100 μl assay buffer. The assay mixture was incubated for 2 hr at 21° C. Bound and free radioligand were then separated by rapid filtration using glass fiber filters (Whatman GF/B, pretreated with 0.3% PEI (polyethylenimine)) on a Brandel Cell Harvester. Filters were then washed multiple times with ice cold wash buffer (PBS w/o Ca^2+ and Mg^2+, 0.01% Triton X-100; pH 7.0 at 23° C.). Non-specific binding was defined using 1 μM DMP696, a CRF1 selective antagonist [Li, Y-W. et al., CNS Drug Reviews 11: 21-52, (2005)]. Filters were then counted in a Wallac Wizard gamma counter. IC50 values were determined in a five point (five drug concentrations) or ten point (ten drug concentrations) competition assay using non-linear regression by Microsoft Excel-fit. Rat frontal cortex was obtained from Analytical Biological Services, Inc. (Wilmington, Del.). ^125I-ovine-CRF (2200 Ci/mmol) was obtained from PerkinElmer Life Sciences, Inc. (Boston, Mass.).

| Molecule | IC50 [nM] |
| --- | --- |
| COc1nc(C)c(Nc2nc(Cl)cn([C@H](COC(=O)Nc3ccccc3)C3CC3)c2=O)cc1C [Example 1, (S)-2-(5-Chloro-3-(6-methoxy-2,5-dimethylpyridin-3-ylamino)-2-oxopyrazin-1(2H)-yl)-2-cyclopropylethyl phenylcarbamate] | 0.1 to 100 |
| COc1nc(C)c(Nc2nc(Cl)cn([C@H](COC(=O)Nc3cccc(C#N)c3)C3CC3)c2=O)cc1C [Example 2, (S)-2-(5-Chloro-3-(6-methoxy-2,5-dimethylpyridin-3-ylamino)-2-oxopyrazin-1(2H)-yl)-2-cyclopropylethyl 3-cyanophenylcarbamate] | 0.1 to 100 |
| COc1nc(C)c(Nc2nc(Cl)cn([C@H](COC(=O)Nc3cccnc3)C3CC3)c2=O)cc1C [Example 3, (S)-2-(5-Chloro-3-(6-methoxy-2,5-dimethylpyridin-3-ylamino)-2-oxopyrazin-1(2H)-yl)-2-cyclopropylethyl pyridin-3-ylcarbamate] | 0.1 to 100 |
| COc1nc(C)c(Nc2nc(Cl)cn([C@H](COC(=O)Nc3ccccc3Cl)C3CC3)c2=O)cc1C [Example 4, (S)-2-(5-Chloro-3-(6-methoxy-2,5-dimethylpyridin-3-ylamino)-2-oxopyrazin-1(2H)-yl)-2-cyclopropylethyl 2-chlorophenylcarbamate] | 0.1 to 100 |
| COc1nc(C)c(Nc2nc(Cl)cn([C@H](COC(=O)Nc3ccc(Cl)cc3)C3CC3)c2=O)cc1C [Example 5, (S)-2-(5-Chloro-3-(6-methoxy-2,5-dimethylpyridin-3-ylamino)-2-oxopyrazin-1(2H)-yl)-2-cyclopropylethyl 4-chlorophenylcarbamate] | 0.1 to 100 |
| COc1nc(C)c(Nc2nc(Cl)cn([C@H](COC(=O)Nc3cc(Cl)cc(Cl)c3)C3CC3)c2=O)cc1C [Example 6, (S)-2-(5-Chloro-3-(6-methoxy-2,5-dimethylpyridin-3-ylamino)-2-oxopyrazin-1(2H)-yl)-2-cyclopropylethyl 3,5-dichlorophenylcarbamate] | 0.1 to 100 |
| COc1nc(C)c(Nc2nc(Cl)cn([C@H](COC(=O)Nc3ccc(Cl)cc3Cl)C3CC3)c2=O)cc1C [Example 7, (S)-2-(5-Chloro-3-(6-methoxy-2,5-dimethylpyridin-3-ylamino)-2-oxopyrazin-1(2H)-yl)-2-cyclopropylethyl 2,4-dichlorophenylcarbamate] | 0.1 to 100 |
| CCCNC(=O)OC[C@H](C1CC1)n1cc(Cl)nc(Nc2cc(C)c(OC)nc2C)c1=O [Example 9, (S)-2-(5-Chloro-3-(6-methoxy-2,5-dimethylpyridin-3-ylamino)-2-oxopyrazin-1(2H)-yl)-2-cyclopropylethyl propylcarbamate] | 0.1 to 100 |
| CCNC(=O)OC[C@H](C1CC1)n1cc(Cl)nc(Nc2cc(C)c(OC)nc2C)c1=O [Example 10, (S)-2-(5-Chloro-3-(6-methoxy-2,5-dimethylpyridin-3-ylamino)-2-oxopyrazin-1(2H)-yl)-2-cyclopropylethyl ethylcarbamate] | 0.1 to 100 |

The remaining lines, values ahead:

| IC50 [nM] | Molecule |
| --- | --- |
| 0.1 to 100 | COc1nc(C)c(NC(=O)OC[C@H](C2CC2)n2cc(Cl)nc(Nc3cc(C)c(OC)nc3C)c2=O)cc1C [Example 12, (S)-2-(5-Chloro-3-(6-methoxy-2,5-dimethylpyridin-3-ylamino)-2-oxopyrazin-1(2H)-yl)-2-cyclopropyl ethyl 6-methoxy-2,5-dimethylpyridin-3-ylcarbamate] |
| 0.1 to 100 | COc1ccc(NC(=O)OC[C@H](C2CC2)n2cc(Cl)nc(Nc3cc(C)c(OC)nc3C)c2=O)c(C)n1 [Example 13, (S)-2-(5-Chloro-3-(6-methoxy-2,5-dimethylpyridin-3-ylamino)-2-oxopyrazin-1(2H)-yl)-2-cyclopropylethyl 6-methoxy-2-dimethylpyridin-3-ylcarbamate] |
| 0.1 to 100 | Cc1cc(Nc2nc(Cl)cn([C@H](COC(=O)Nc3cccnc3)C3CC3)c2=O)c(C)nc1OC(F)F [Example 15, (S)-2-(5-Chloro-3-(6-(difluoromethoxy)-2,5-dimethylpyridin-3-ylamino)-2-oxopyrazin-1(2H)-yl)-2-cyclopropylethyl pyridin-3-ylcarbamate] |

same assay, conditions: 125I-o-CRF, numeric values

| IC50 [nM] | Molecule |
| --- | --- |
| 4.74 | CCCCNC(=O)OC[C@H](C1CC1)n1cc(Cl)nc(Nc2cc(C)c(OC)nc2C)c1=O [Example 8, (S)-2-(5-Chloro-3-(6-methoxy-2,5-dimethylpyridin-3-ylamino)-2-oxopyrazin-1(2H)-yl)-2-cyclopropylethyl butylcarbamate] |
| 15.9 | CCOc1nc(C)c(NC(=O)OC[C@H](C2CC2)n2cc(Cl)nc(Nc3cc(C)c(OC)nc3C)c2=O)cc1C [Example 11, (S)-2-(5-Chloro-3-(6-methoxy-2,5-dimethylpyridin-3-ylamino)-2-oxopyrazin-1(2H)-yl)-2-cyclopropylethyl 6-ethoxy-2,5-dimethylpyridin-3-ylcarbamate] |
| 0.74 | Cc1cc(Nc2nc(Cl)cn([C@H](COC(=O)Nc3ccccc3)C3CC3)c2=O)c(C)nc1OC(F)F [Example 14, (S)-2-(5-Chloro-3-(6-(difluoromethoxy)-2,5-dimethylpyridin-3-ylamino)-2-oxopyrazin-1(2H)-yl)-2-cyclopropylethyl phenylcarbamate] |

system: Human Y-79 retinoblastoma cells; assay: Functional Assay (Y-79 cells), CRF-stimulated cAMP production (HTRF); type: cell-based; conditions: stimulation of cAMP production in Y-79 cells, n=6
Experimental: Functional Assay (Y-79 cells).
Human Y-79 retinoblastoma cells were suspended in assay buffer (Hank's Balanced Salt Solution containing 2 mM CaCl2, 5 mM MgCl2, 20 mM HEPES, 1 mM IBMX) and plated at 20,000 cells/well in a 96-well black plate. CRF antagonists (typically 0.01 to 10,000 nM) were then added to wells as needed and allowed to equilibrate with the cells for 30 minutes at 37° C. […] The reaction was terminated by the addition of a lysis solution containing homogeneous time resolved florescence (HTRF) cAMP XL665 conjugate followed by HTRF anti-cAMP cryptate conjugate (CIS bio International). Plates were subsequently incubated at room temperature for 1 hour prior to reading the time-resolved fluorescence signal. The amount of cAMP produced was estimated from a standard curve prepared using known concentrations of cAMP. The percentage inhibition of CRF-induced cAMP production was determined for each compound (triplicate determinations). The effect of CRF antagonists on basal cAMP production (i.e. in the absence of CRF) was also determined.

| EC50 [nM] | Molecule |
| --- | --- |
| 1.11 ± 0.14 | Corticotropin releasing factor [CRF] |
